Source: paper PMC10924921, “Mi-2β promotes immune evasion in melanoma by activating EZH2 methylation” (Nature Communications, 2024)

What was measured:
Assay in all cases: biochemical
Parameters in all cases: KINOMEscan active-site competition binding panel (468 kinase assays), per cent of control at 1000 nM
Settings in all cases: KINOMEscan per cent of control (binding competition); read-out: Percent Control
PKN2 = PKN2 (Homo sapiens, UniProt Q16513)
Text: (§1) Figure S7 / Percent Control

TRKC = molecular target: T1, TRKC (Homo sapiens, UniProt Q16288)
T1 construct: gene NTRK3
Text: as §1

YANK1 = molecular target: T2, YANK1 (Homo sapiens, UniProt Q8WU08)
T2 construct: gene STK32A
Text: as §1

PFTAIRE2 = molecular target: T3, PFTAIRE2 (Homo sapiens, UniProt Q96Q40)
T3 construct: gene CDK15
Text: as §1

MET(M1250T) = MET(M1250T) (Homo sapiens, UniProt P08581, M1250T)
MET(M1250T), sequence (P08581 whole entry M1250T): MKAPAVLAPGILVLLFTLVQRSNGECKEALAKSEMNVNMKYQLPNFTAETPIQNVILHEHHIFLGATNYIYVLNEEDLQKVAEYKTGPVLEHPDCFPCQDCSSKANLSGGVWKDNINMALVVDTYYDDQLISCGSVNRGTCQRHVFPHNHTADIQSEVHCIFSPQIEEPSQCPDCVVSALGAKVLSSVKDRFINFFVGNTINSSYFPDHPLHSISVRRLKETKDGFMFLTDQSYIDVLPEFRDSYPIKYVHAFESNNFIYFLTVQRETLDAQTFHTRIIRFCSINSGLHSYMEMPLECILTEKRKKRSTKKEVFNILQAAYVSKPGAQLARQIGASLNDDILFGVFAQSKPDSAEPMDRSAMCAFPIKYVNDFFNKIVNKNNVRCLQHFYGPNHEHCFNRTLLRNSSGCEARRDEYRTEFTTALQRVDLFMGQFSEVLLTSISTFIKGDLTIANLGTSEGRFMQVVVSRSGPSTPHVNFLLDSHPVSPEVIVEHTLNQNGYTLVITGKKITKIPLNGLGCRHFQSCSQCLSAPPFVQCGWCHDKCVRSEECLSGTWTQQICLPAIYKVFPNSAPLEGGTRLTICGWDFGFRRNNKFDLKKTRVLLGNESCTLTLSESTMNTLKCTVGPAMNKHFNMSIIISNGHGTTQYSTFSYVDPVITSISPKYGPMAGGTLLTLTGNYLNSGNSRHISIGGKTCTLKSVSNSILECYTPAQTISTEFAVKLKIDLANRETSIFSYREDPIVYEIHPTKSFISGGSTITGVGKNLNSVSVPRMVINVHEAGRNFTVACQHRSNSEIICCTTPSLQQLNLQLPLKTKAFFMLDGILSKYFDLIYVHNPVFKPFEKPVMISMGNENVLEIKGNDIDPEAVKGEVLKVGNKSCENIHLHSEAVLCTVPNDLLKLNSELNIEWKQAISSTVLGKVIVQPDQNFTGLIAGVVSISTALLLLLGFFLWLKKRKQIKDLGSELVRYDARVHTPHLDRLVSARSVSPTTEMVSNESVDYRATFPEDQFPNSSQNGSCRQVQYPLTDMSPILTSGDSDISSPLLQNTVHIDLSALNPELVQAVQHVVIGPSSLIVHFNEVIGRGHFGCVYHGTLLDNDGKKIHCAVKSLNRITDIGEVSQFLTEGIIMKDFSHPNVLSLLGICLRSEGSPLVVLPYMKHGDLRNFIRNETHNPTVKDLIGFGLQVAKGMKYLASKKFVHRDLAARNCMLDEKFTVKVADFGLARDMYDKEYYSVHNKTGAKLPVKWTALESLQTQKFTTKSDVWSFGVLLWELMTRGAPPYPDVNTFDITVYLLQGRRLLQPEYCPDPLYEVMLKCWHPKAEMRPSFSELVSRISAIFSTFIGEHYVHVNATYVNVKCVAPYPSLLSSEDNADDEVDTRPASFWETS
Text: as §1

ROCK2 = ROCK2 (Homo sapiens, UniProt O75116)
Text: as §1

ERK8 = molecular target: T4, ERK8 (Homo sapiens, UniProt Q8TD08)
T4 construct: gene MAPK15
Text: as §1

[1] = molecular target: T5, RSK3(Kin.Dom.2-C-terminal) (Homo sapiens, UniProt Q15349)
T5 construct: gene RPS6KA2; Kin.Dom.2-C-terminal
Text: as §1

[2] = molecular target: T6, RPS6KA5(Kin.Dom.2-C-terminal) (Homo sapiens, UniProt O75582)
T6 construct: Kin.Dom.2-C-terminal
Text: as §1

EGFR(L861Q) = EGFR(L861Q) (Homo sapiens, UniProt P00533, L861Q)
Text: as §1

[3] = molecular target: T7, RSK1(Kin.Dom.2-C-terminal) (Homo sapiens, UniProt Q15418)
T7 construct: gene RPS6KA1; Kin.Dom.2-C-terminal
T7 sequence (Q15418 whole entry): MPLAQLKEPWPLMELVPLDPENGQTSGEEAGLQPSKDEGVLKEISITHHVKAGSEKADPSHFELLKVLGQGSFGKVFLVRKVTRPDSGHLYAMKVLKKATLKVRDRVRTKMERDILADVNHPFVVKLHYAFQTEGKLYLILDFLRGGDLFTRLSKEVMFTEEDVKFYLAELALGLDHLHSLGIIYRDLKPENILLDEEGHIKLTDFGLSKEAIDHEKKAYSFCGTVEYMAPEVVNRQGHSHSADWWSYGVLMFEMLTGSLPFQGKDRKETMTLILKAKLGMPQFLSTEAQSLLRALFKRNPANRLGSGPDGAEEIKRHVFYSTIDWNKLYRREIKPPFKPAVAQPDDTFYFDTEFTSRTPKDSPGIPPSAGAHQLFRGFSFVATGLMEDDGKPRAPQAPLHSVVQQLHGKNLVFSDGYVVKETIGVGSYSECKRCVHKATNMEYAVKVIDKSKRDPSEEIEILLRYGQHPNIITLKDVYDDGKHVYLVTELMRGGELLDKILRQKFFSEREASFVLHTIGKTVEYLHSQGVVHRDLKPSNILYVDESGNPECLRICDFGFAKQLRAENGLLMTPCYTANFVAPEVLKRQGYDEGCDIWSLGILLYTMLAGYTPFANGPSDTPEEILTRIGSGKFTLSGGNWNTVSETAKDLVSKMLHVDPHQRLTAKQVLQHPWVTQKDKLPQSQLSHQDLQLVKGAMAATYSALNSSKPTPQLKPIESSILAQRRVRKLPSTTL
Text: as §1

TGFBR2 = TGFBR2 (Homo sapiens, UniProt P37173)
TGFBR2, sequence (P37173 whole entry): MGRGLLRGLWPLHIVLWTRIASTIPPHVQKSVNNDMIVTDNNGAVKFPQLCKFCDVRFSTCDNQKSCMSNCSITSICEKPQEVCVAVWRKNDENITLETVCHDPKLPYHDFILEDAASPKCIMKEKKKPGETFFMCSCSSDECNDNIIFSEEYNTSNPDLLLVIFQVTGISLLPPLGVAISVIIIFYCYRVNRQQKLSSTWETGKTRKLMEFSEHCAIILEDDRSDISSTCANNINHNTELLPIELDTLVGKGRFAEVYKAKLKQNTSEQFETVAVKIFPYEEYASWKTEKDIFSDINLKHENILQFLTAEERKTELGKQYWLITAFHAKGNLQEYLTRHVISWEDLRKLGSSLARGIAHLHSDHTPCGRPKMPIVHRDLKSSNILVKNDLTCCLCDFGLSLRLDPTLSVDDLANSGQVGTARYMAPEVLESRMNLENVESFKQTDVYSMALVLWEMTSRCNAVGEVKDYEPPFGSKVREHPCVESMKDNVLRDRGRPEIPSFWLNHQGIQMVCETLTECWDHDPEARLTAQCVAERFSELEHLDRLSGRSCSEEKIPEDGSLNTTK
Text: as §1

VRK2 = VRK2 (Homo sapiens, UniProt Q86Y07)
Text: as §1

ADCK3 = molecular target: T8, ADCK3 (Homo sapiens, UniProt Q8NI60)
T8 construct: gene COQ8A
T8 sequence (Q8NI60 whole entry): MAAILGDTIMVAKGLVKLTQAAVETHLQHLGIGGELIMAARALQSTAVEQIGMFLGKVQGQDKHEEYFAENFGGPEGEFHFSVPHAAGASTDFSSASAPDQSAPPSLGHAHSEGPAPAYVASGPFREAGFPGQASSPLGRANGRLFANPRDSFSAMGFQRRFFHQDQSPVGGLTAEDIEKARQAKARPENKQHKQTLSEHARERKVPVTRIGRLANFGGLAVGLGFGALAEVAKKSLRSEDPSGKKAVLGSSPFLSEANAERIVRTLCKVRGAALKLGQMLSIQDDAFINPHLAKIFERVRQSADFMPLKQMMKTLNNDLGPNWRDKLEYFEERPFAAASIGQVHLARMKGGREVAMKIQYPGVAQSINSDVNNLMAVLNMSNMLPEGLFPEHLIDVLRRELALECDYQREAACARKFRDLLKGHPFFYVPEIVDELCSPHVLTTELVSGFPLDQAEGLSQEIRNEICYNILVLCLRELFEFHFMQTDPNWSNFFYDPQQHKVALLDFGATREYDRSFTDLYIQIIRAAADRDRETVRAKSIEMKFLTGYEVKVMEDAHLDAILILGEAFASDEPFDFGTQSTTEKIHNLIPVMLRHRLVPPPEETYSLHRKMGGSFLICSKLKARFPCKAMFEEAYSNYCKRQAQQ
Text: as §1

CAMK1 = CAMK1 (Homo sapiens, UniProt Q14012)
Text: as §1

MST3 = molecular target: T9, MST3 (Homo sapiens, UniProt Q9Y6E0)
T9 construct: gene STK24
Text: as §1

CDC2L5 = molecular target: T10, CDC2L5 (Homo sapiens, UniProt Q14004)
T10 construct: gene CDK13
Text: as §1

DDR1 = DDR1 (Homo sapiens, UniProt Q08345)
Text: as §1

FLT3(N841I) = FLT3(N841I) (Homo sapiens, UniProt P36888, N841I)
Text: as §1

NEK4 = NEK4 (Homo sapiens, UniProt P51957)
NEK4, sequence (P51957 whole entry): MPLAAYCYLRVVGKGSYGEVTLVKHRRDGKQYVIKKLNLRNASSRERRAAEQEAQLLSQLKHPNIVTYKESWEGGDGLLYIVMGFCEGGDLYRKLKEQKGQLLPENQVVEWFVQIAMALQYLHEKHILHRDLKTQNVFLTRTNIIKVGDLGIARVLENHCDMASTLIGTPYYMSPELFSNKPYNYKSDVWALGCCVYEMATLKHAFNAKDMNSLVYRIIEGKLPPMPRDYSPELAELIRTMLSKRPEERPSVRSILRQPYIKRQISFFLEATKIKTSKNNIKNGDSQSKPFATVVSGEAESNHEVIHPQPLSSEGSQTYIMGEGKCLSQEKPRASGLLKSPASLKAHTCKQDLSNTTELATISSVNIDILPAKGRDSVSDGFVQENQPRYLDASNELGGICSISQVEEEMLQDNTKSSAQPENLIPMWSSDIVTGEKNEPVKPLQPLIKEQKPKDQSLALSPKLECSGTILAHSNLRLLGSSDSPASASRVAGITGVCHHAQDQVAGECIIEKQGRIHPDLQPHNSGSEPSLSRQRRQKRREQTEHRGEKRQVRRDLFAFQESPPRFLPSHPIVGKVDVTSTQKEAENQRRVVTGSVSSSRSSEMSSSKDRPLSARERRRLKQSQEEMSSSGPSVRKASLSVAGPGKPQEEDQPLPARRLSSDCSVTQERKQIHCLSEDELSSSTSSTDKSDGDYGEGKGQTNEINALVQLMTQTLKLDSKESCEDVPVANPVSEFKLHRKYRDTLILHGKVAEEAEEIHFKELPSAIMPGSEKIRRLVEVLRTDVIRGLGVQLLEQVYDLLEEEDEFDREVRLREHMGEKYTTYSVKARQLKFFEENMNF
Text: as §1

VPS34 = molecular target: T11, VPS34 (Homo sapiens, UniProt Q8NEB9)
T11 construct: gene PIK3C3
T11 sequence (Q8NEB9 whole entry): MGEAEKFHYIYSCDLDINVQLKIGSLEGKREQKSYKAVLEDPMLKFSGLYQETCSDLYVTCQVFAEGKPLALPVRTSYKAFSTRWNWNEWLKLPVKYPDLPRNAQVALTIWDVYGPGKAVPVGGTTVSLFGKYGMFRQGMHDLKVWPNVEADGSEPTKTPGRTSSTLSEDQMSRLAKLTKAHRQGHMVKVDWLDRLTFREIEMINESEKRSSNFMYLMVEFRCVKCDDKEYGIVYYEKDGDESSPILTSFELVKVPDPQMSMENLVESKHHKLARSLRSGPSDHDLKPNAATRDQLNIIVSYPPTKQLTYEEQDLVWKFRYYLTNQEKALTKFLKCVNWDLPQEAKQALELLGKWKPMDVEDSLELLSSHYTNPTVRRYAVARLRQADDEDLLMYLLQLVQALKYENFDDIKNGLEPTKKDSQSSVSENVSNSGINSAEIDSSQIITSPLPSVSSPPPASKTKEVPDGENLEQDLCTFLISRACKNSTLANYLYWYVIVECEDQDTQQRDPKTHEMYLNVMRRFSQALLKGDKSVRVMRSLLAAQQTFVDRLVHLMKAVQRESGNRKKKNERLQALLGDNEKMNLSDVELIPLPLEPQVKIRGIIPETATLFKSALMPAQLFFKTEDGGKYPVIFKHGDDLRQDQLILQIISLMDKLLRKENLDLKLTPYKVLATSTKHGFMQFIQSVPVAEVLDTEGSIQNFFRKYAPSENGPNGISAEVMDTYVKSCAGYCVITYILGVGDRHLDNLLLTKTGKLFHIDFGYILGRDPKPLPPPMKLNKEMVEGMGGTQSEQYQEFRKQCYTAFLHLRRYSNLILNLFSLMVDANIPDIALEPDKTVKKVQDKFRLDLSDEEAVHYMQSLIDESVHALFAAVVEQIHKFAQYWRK
Text: as §1

GRK4 = GRK4 (Homo sapiens, UniProt P32298)
Text: as §1

AMPK-alpha2 = molecular target: T12, AMPK-alpha2 (Homo sapiens, UniProt P54646)
T12 construct: gene PRKAA2
Text: as §1

TESK1 = TESK1 (Homo sapiens, UniProt Q15569)
Text: as §1

Structure (SMILES): Cn1c(=O)[nH]c2ccc(-c3cccc(C(=O)NC4CCn5ccnc5C4)c3)cc21 (stereo not drawn) [Z36-MP5]
- remaining binding at 1 µM (PKN2): 98%
- remaining binding at 1 µM (TRKC): 53%
- remaining binding at 1 µM (YANK1): 95%
- remaining binding at 1 µM (PFTAIRE2): 90%
- remaining binding at 1 µM (MET(M1250T)): 88%
- remaining binding at 1 µM (ROCK2): 61%
- remaining binding at 1 µM (ERK8): 83%
- remaining binding at 1 µM [1]: 81%
- remaining binding at 1 µM [2]: 51%
- remaining binding at 1 µM (EGFR(L861Q)): 69%
- remaining binding at 1 µM [3]: 98%
- remaining binding at 1 µM (TGFBR2): 94%
- remaining binding at 1 µM (VRK2): 72%
- remaining binding at 1 µM (ADCK3): 39%
- remaining binding at 1 µM (CAMK1): 91%
- remaining binding at 1 µM (MST3): 96%
- remaining binding at 1 µM (CDC2L5): 55%
- remaining binding at 1 µM (DDR1): 88%
- remaining binding at 1 µM (FLT3(N841I)): 63%
- remaining binding at 1 µM (NEK4): 69%
- remaining binding at 1 µM (VPS34): 49%
- remaining binding at 1 µM (GRK4): 52%
- remaining binding at 1 µM (AMPK-alpha2): 93%
- remaining binding at 1 µM (TESK1): 100%
